These results are taken from patent publication US20070264363A1, “Molluscicidal and Anti-Barnacle Compounds” (priority 2003, published 2007).

Series [1] has as its system D. reticulatum slugs. Description: Leaf disc assay (no choice-feeding bioassay on lettuce leaf discs). In kind it is in vivo. As to conditions: for amount of lettuce leaf consumed was reduced: solubilisation in aqueous tween 80 (0.5%). The protocol:
Adult D. reticulatum were collected from nearby fields and maintained in plastic trays lined with moist, unbleached, absorbent paper They were housed in the dark and at a constant temperature of 10°±1° C. Slugs were regularly fed on a mixture of iceberg lettuce and carrots. Slugs, with a weight 300-600 mg, were pre-starved for 24 hours and maintained at a constant temperature of 15°±1° C. prior to testing.
The technique described here is a no choice-feeding bioassay using circular discs prepared from lettuce leaves. Selected terpenes were tested against D. reticulatum slugs and evaluated for their repellent/antifeedant and molluscicidal properties.
Lettuce leaf discs (1.4 cm^2) were placed in petri dishes lined with water saturated filter paper ([…] diameter). A known concentration of terpene oil, solubilised in the appropriate media, was prepared and a fixed volume (50 μl) added by pipette, onto individual lettuce leaf discs. Any residual solvent was left to evaporate for a minimum time of 30 iminutes.
Slugs, previously starved for 24 hours, were introduced to the petri dishes and placed in an environmentally controlled chamber (15° C.: 12 hours day, 15° C.: 12 hours night) for 24 hours.
The amount of leaf disc damaged (eaten) was quantified by comparing digital photographs of treated leaf discs with untreated (control) leaf discs, using photographic computer software. The experiment was replicated 20 times for each terpene.
To compare the change in feeding behaviour for different treatments, the leaf damage data was corrected for the control, using the repellency index equation below. [formula]
The antifeedant effect of various media was determined by comparison to untreated leaf discs. A positive R I value indicates a reduction in feeding (antifeedant/repellent) whereas a negative value indicates an increase in feeding behaviour (phagostimulant). Corrections for mortality were done the Abbotts formula (Abbott, 1925). [formula] Bioassay Assay Results: Leaf Disc Assay

Series [2] deals with field slug, D. reticulatum. Conditions: in vivo; cited from earlier work.
The next series has as its system eggs of D. reticulatum. As to conditions: applied at a rate of 4.6 kg/ha; cited from earlier work.
Series [3] relates to D. reticulatum slugs. Description: Spray trial (controlled temperature units) monitored over 7 days (Example 9). Type of series: in vivo. As to conditions: for % Leaf Damage: 5% oil emulsion spray; for % Mortality: 5% spray. From the text:
The same spray trial as in the previous examples was repeated and leaf damage monitored for 7 days.
Spray Trial (Controlled Temperature Units) Monitoring Leaf Damage Over 7 Days (D. reticulatum)
Spray Trial (Controlled Temperature Units) Monitoring Mortality Over 7 Days (D. reticitlatum)

A further series has as its system D. reticulatum. Description: Spray trial, lettuce leaves on peat soil (Example 7). Type of series: in vivo, Deroceras reticulatum. As to conditions: 3% in water, 24 hours. How it is done:
To evaluate the efficacy of trans-β-ocimene emulsions using peat substrates lettuce leaves were sprayed with 12 ml of an aqueous ocimene emulsion (3%). Once sprayed the leaves were placed in plastic trays containing peat soil and left for 30 minutes to remove the excess liquid drops. After this time period two adult slugs, previously starved for 24 hours, were added to each plastic tray and left for 24 hours.
A control (water) was treated similarly. Four replicates were prepared for each treatment.
Repellency indices were calculated as described for the leaf disc bioassay.

Series [4] relates to garden snail H. aspersa. Description: Spray trial with ocimene and bisabolol formulations (Example 8). Type of series: in vivo. Conditions: for Repellency Index: RI relative to water. From the text:
Example 7 was repeated wherein the lettuce leaves were sprayed with 5% trans-β-ocimene in Tween 20 and the anti-feedant properties tested on the garden snail H. aspersa.
5 and 10% Ocimene and Bisabolol (H. aspersa)

In series [5] the test system is cyprid larvae of the marine barnacle Balanus amphitrite. As to the kind of experiment: Barnacle settlement in multi-welled plates, extract evaporated to dryness. Type of series: in vivo. Conditions: top two doses, 24 hrs. The protocol:
The settlement of the barnacle Balanus Amphitrite was tested in multi-welled plates in the laboratory. Myrrh and scented Myrrh were extracted in ethanol and 2 ml aliquots from a range of concentrations (50% v/v to 1.5% v/v) were evaporated to dryness in each well of a multi welled plate. Ethanolic trans-β-Ocimene a component of scented Myrrh was also applied in the manner over a range of concentrations (50% v/v to 1.5-% v/v). After evaporation saltwater containing active cyprid larvae was introduced to each well and their settlement and activity measured after 24 hrs.

Series [6] relates to Balanus amphitrite day 3 cyprids. As to the kind of experiment: Barnacle settlement repeated, cyprids incubated in 10^−5-10^−9M. Type of series: in vivo. Conditions: after 24 hr. How it is done: The barnacle settlement experiments were repeated; however, this time 10 Balanus amphitrite day 3 cyprids were incubated in varying concentrations (10^−5-10^−9M) of trans-β-ocimene at 28° C. in dark conditions. Each concentration was replicated four times, with a control run. The number of cyprids that had settled, still active, floating on the surface meniscus or dead was counted after 24 and 48 hr incubations. Results are expressed as a % of the total cyprid number in each well minus floating cyprids, as these were unable to settle. Values are expressed as mean ±SEM. The amount of settlement at each concentration was compared to the control settlement using an unpaired t-test.

For series [7], the system named is garden snail H. aspersa. As to the kind of experiment: Spray trial with ocimene and bisabolol formulations (Example 8). In kind it is in vivo. As to conditions: 1% in aq. Tween 20 (1%).

Where “and” joins values, the source holds several entries; their conditions need not be identical. Equal values may be shown once.

For the molecule `C=C1CC/C=C(\C)CC[C@@H]2[C@@H]1CC2(C)C` [Carophyllene], in the series on D. reticulatum slugs [1] (0.96% in ethanol), the “Corrected Mortality” value was determined as 15% and the “Repellency Index” value is 40%.

As to `C=C(C)C1CC=C(C)C(=O)C1` (stereo not shown) [Carvone, carvone], the molluscicidal activity result in [2] is given as “potent molluscicides”. Moreover, in the series on eggs of D. reticulatum, the “time to induce death” value is 2 days.

For the molecule `C=C1/C=C/C(C(C)C)CC/C(C)=C/CC1` (stereo not shown) [Germacrene D], in the series with D. reticulatum slugs [1] (0.4% in ethanol), the “Corrected Mortality” value came out at 0% and the “Repellency Index” value was 77%.

As for `CC(C)=CCC/C(C)=C/CC/C(C)=C\CO` [cis, trans farnesol], in the series with D. reticulatum slugs [1] (0.95% in ethanol), the “Corrected Mortality” value worked out at 0% and the “Repellency Index” value is on record as 77%.

Consider `C=C/C(C)=C\CC=C(C)C` [cis-β-Ocimene], for which the “Repellency Index” value in the series with D. reticulatum slugs [1] (0.35% in Aq. Tween 80 (0.2%)) was found to be 84%. Besides, in the series with D. reticulatum slugs [1] (in vivo), the “Corrected Mortality” value was 15% and the mortalities entry is “Low”. Also, the “amount of lettuce leaf consumed was reduced” value in the series with D. reticulatum slugs [1] stood at 84%.

On to `CC1CCC(C(C)C)C(O)C1` (stereo not shown) [menthol], for which, in series [2], the mollusc repellent activity entry was “effective mollusc repellents” and the molluscicidal activity result is “potent molluscicides”.

For the molecule `CC(C)[C@@H]1CC[C@@H](C)CC1=O` [menthone], in [2], the molluscicidal activity entry is given as “potent molluscicides”.

Consider `Cc1ccc(C(C)C)c(O)c1` [thymol], for which, in series [2], the mollusc repellent activity entry was “effective mollusc repellents”.

Take `CC(C)=CCC/C(C)=C/CC/C(C)=C/CO` [trans, trans farnesol]: the “Repellency Index” value with D. reticulatum slugs [1] (0.96% in ethanol) was 96%. The “Corrected Mortality” value with D. reticulatum slugs [1] (in vivo) amounted to 0%.

As to `C=C/C(C)=C/CC=C(C)C` [trans-β-Ocimene], the “% Leaf Damage” value in the series with D. reticulatum slugs [3] (Day 1), with D. reticulatum slugs [3] (Day 2), with D. reticulatum slugs [3] (Day 3), with D. reticulatum slugs [3] (Day 4), with D. reticulatum slugs [3] (Day 5) and with D. reticulatum slugs [3] (Day 6) was 0% throughout. In addition, the “% Leaf Damage” value with D. reticulatum slugs [3] (Day 7) was 0%. For the same molecule, the “% Mortality” value is on record as 67% in the series with D. reticulatum slugs [3] (Day 1); 80 ± 12% in the series on D. reticulatum slugs [3] (Day 2); 87 ± 7% with D. reticulatum slugs [3] (Day 3); 87 ± 7% in the series on D. reticulatum slugs [3] (Day 4); 93 ± 7% in the series with D. reticulatum slugs [3] (Day 5); 93 ± 7% with D. reticulatum slugs [3] (Day 6). For the same molecule, the “% Mortality” value with D. reticulatum slugs [3] (Day 7) is listed as 93 ± 7%. For the same molecule, the Leaf damage in the series with D. reticulatum (12 ml spray, single replicates 1-4) was 18.69% and 9.33% and 0.00% and 0.99%. Besides, the “Repellency Indices” value with D. reticulatum is given as 76.5%; in the series on D. reticulatum (listed as trans-β-ocimene), 77%. The “Mean Leaf damage” value in the series on D. reticulatum (four replicates) was found to be 7.25%. For the same molecule, the mortality result in the series on D. reticulatum (peat containers) is on record as “No mortality”. The “% Leaf Damage ± SEM” value with garden snail H. aspersa [4] (5% in Water) worked out at 79 ± 9 NS %; with garden snail H. aspersa [4] (5% in aq. Synperonic (0.025%)) it was 2 ± 2 %; in the series on garden snail H. aspersa [4] (5% in aq. Synperonic (5%)), 0 ± 0 %; with garden snail H. aspersa [4] (5% in aq. Tween 20 (5%)), 0 ± 0 %; in the series with garden snail H. aspersa [4] (10% in Water), 0 ± 0 %. The “% Mortality ± SEM” value in the series on garden snail H. aspersa [4] (5% in Water) is listed as 0%; in the series with garden snail H. aspersa [4] (5% in aq. Synperonic (0.025%)) it was 17 ± 7 %; with garden snail H. aspersa [4] (5% in aq. Synperonic (5%)), 0%; with garden snail H. aspersa [4] (5% in aq. Tween 20 (5%)) it was 0%; in the series with garden snail H. aspersa [4] (10% in Water), 5%. The “Repellency Index” value in the series with garden snail H. aspersa [4] (5% in Water) is reported as 21; in the series with garden snail H. aspersa [4] (5% in aq. Synperonic (0.025%)) it was 98; in the series on garden snail H. aspersa [4] (5% in aq. Synperonic (5%)), 100; with garden snail H. aspersa [4] (5% in aq. Tween 20 (5%)), 100; in the series with garden snail H. aspersa [4] (10% in Water) it was 100; in the series with D. reticulatum slugs [1] (0.1% in ethanol), 5%. For the same molecule, the “Repellency Index” value worked out at 2% with D. reticulatum slugs [1] (0.22% in Aq. Dmso (10%)); 91% with D. reticulatum slugs [1] (0.45% in Aq. Dmso (2.5%)); 90% with D. reticulatum slugs [1] (0.45% in Aq. Dmso (10%)); 91% with D. reticulatum slugs [1] (0.45% in Aq. Tween 80 (0.2%)); 73% with D. reticulatum slugs [1] (0.45% in Aq. Tween 80 (0.5%)); 100% in the series on D. reticulatum slugs [1] (0.45% in Water). For the same molecule, the “Repellency Index” value in the series with D. reticulatum slugs [1] (0.45% in ethanol, 24 hours) turned out to be 35%; in the series on D. reticulatum slugs [1] (0.90% in Aq. Dmso (10%)), 92%; with D. reticulatum slugs [1] (0.9% in ethanol), 95%; in the series with D. reticulatum slugs [1] (2.7% in Aq. Dmso (10%)) it was 100%. Further, the state of larvae entry in series [5] is recorded as “all floating on the surface but were ‘mutated’”. The inhibition of settlement result in series [6] (10^−5-10^−9M, 28° C., dark) is reported as “inhibition of settlement in a reverse dose-dependent manner”. For the same molecule, in series [6] (lowest concentration (10^−9M)), the “settlement compared to the control (unpaired t-test)” value is “statistically different from the control”. For the same molecule, the “Corrected Mortality” value with D. reticulatum slugs [1] (0.1% in ethanol) is reported as 0%; in the series on D. reticulatum slugs [1] (0.22% in Aq. Dmso (10%)), 0%; in the series on D. reticulatum slugs [1] (0.45% in Aq. Dmso (2.5%)) it was 20%; in the series with D. reticulatum slugs [1] (0.45% in Aq. Dmso (10%)), 70%; with D. reticulatum slugs [1] (0.45% in Aq. Tween 80 (0.2%)), 20%; with D. reticulatum slugs [1] (0.45% in Aq. Tween 80 (0.5%)) it was 10%. Besides, the “Corrected Mortality” value came to 90% with D. reticulatum slugs [1] (0.45% in Water); 0% with D. reticulatum slugs [1] (0.45% in ethanol, 24 hours); 75% in the series with D. reticulatum slugs [1] (0.90% in Aq. Dmso (10%)); 5% in the series with D. reticulatum slugs [1] (0.9% in ethanol); 95% with D. reticulatum slugs [1] (2.7% in Aq. Dmso (10%)). The mortalities entry with D. reticulatum slugs [1] (Examples 2 and 4, aqueous tween 80) is “Low”. In the series with D. reticulatum slugs [1] (pure oil, immediately on contact), this molecule registered a slug mortality of 100%. Further, the “amount of lettuce leaf consumed was reduced” value with D. reticulatum slugs [1] came out at 73%.

For the molecule `CC(C)=CCC[C@](C)(O)C1CC=C(C)CC1` (stereo partly drawn) [α-bisabolol], the “Repellency Index” value in the series on garden snail H. aspersa [4] (1% in aq. Tween 20 (1%)) stood at 90. The “% Mortality ± SEM” value with garden snail H. aspersa [4] (in vivo) turned out to be 0%. In addition, the “% Leaf Damage ± SEM” value in the series with garden snail H. aspersa [7] came to 10 ± 0%.

Take `C=C/C(C)=C/C/C=C(\C)CCC=C(C)C` [α-farnesene]: the “Repellency Index” value in the series with D. reticulatum slugs [1] (0.7% in ethanol) was determined as 60%; with D. reticulatum slugs [1] (2.7% in ethanol), 97%.

For the molecule `CC1=CCC(C(C)(C)O)CC1` (stereo not drawn) [α-terpineol], in series [2], the mollusc repellent activity entry is “effective mollusc repellents”.

For the molecule `CC(C)=CCC/C(C)=C1/CC=C(C)CC1` [γ-bisabolene], in the series on D. reticulatum slugs [1] (0.7% in ethanol), the “Corrected Mortality” value is reported as 0% and the “Repellency Index” value worked out at 70%.
